We go through 20 compounds from patent US12606552B2, “Bifunctional compound, preparation method therefor, and use thereof” (SUZHOU KINTOR PHARMACEUTICALS, INC., priority 2020, dated 2026).

Data set [1] in a line: Pharmacokinetic studies of compounds in mice. Type of data set: in vivo. As to conditions: male mice, intragastric administration 10 mg/kg, plasma. On the procedure:
Activity Assay Example 3: Pharmacokinetic Studies of Compounds in Mice
In this test, 3 male mice were selected and divided into 1 group, 3 mice/group. All animals were fasted overnight before administration.
The intragastric administration dose was 10 mg/kg, and the administration volume was 10 mL/kg.
2.2 Preparation of Drug Solution
According to the animal body weight combined with the administration dose, the amount of the required drug solution was calculated. An appropriate amount of the test substance was weighed, added with 5% of the final volume of ethanol for dissolution, then added with 5% of the final volume of SolutolHS15, and finally added with PBS to the final volume, and mixed by vortex and fully dissolved to obtain a solution for intragastric administration (1 mg/mL). All solutions were prepared for immediate use.
2.3 Method of Administration
Before administration, the drug solution was placed on a magnetic stirrer in the animal laboratory and stirred for at least 10 min. During the administration process, vortex was continued to ensure uniformity of the drug solution. The theoretical volume of gavage administration was 10 mL/kg, which was administered with a syringe equipped with a gavage needle.
Before administration, the animals were weighed and the body weight of the animals involved in the experiment was recorded, and the administration volume of each animal was calculated according to the body weight. After administration, animals were promptly transferred back to the experimental cages to collect samples.
2.4 Observation of Animal Status
After administration, whether animals had abnormal reactions was observed immediately. If there were no abnormal reactions, animals were observed twice a day during the experiment. If abnormal reactions were found, they should be recorded in time, and the number of observations should be increased until the animals returned to normal or to the end of the experiment.
2.5 Sample Collection and Preservation
All experimental animals were fasted overnight before administration, and blood was collected at corresponding time points into blood collection tubes containing heparin sodium anticoagulant. After the whole blood was collected, the blood collection tube was gently shaken and placed on ice immediately, and then centrifuged (4° C., 4000 rpm, 10 min) to collect supernatant plasma samples, which were stored in a refrigerator at −80° C. before analysis.
2.6 Plasma Sample Processing and Analysis
The collected plasma samples were handed over to the Pharmacokinetic department for sample extraction, and the test substances in the plasma were extracted by protein precipitation method using organic reagents containing internal standards (acetonitrile:plasma=4:1, v/v). The extracted processed samples were submitted for quantitative concentration analysis by LC-MS/MS. According to the plasma concentration of each animal obtained by the analysis, software Kinetica (version 5.0) was used to calculate the main pharmacokinetic parameter eAUC30-120 according to the non-compartment model to evaluate the exposure amount; the test results are shown in Table 2: […]

Another data set concerns the target T1, AR (Homo sapiens, UniProt P10275, T878A).
T1 sequence (P10275 1-920 T878A): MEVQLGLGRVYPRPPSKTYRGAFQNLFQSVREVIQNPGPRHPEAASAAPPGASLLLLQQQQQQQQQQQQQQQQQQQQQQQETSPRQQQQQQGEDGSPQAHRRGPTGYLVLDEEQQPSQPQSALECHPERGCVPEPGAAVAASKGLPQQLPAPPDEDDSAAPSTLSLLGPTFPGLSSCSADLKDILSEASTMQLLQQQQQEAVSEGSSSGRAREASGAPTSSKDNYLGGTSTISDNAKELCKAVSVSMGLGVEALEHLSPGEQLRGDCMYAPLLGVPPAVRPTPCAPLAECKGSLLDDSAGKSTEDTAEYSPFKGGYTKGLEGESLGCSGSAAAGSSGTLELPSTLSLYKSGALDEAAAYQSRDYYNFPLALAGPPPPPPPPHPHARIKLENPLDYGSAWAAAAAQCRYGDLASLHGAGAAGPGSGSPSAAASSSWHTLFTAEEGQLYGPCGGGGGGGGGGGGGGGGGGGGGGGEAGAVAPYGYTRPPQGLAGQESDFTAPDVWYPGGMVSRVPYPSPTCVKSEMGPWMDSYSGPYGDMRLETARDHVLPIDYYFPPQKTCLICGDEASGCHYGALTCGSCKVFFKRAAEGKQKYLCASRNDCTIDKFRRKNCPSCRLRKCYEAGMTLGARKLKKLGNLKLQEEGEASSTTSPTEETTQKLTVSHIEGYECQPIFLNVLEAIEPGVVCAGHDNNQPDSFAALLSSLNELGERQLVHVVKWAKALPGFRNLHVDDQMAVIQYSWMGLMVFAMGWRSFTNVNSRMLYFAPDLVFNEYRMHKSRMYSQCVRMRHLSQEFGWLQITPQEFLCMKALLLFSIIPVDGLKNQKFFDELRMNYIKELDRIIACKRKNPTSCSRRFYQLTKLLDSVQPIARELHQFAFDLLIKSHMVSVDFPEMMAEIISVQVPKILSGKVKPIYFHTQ
Nature of the data set: Effects of compounds on AR expression in LNCaP cells (ELISA, DC50). Type of data set: cell-based. More on the design: Measurement of the Effects of Drugs on the Expression of AR in Cells by ELISA Method; endogenous in cells; host or cells: LNCaP. As to conditions: 24 hours of drug treatment, AR by ELISA. In short, it runs like this: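 LNCaP cells at about 15,000/well were treated for 24 h with compound at 0.0001–2 μmol/L final. AR in cell lysates was measured by ELISA (OD450). Inhibition was relative to DMSO control after blank subtraction, and DC50 was calculated from it.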
Background: In an ELISA, binding on a coated surface is turned into a signal by an enzyme label.

As to `Cc1ncsc1-c1ccc(CNC(=O)[C@@H]2C[C@@H](O)CN2C(=O)[C@@H](NC(=O)COCCCCOc2c(F)cc(-c3ncc(N4C(=S)N(c5ccc(C#N)c(C(F)(F)F)c5F)C(=O)C4(C)C)cc3F)cc2F)C(C)(C)C)cc1` [Compound A77], in data set [1], the “eAUC0.5-2 h” value was found to be 1354 ± 205 ng·h/mL. The DC50 on AR turned out to be 114 nM.
In the same order, the values of `Cc1ncsc1-c1ccc(CNC(=O)[C@@H]2C[C@@H](O)CN2C(=O)[C@@H](NC(=O)COCCCCOc2ccc(-c3ccc(N4C(=S)N(c5ccc(C#N)c(C(F)(F)F)c5F)C(=O)C4(C)C)cn3)cn2)C(C)(C)C)cc1` [Compound A100] are 720 ± 206 ng·h/mL and 18.9 nM.
In the same order, the values of `Cc1ncsc1-c1ccc(CNC(=O)[C@@H]2C[C@@H](O)CN2C(=O)[C@@H](NC(=O)COCCOc2ccc(-c3ncc(N4C(=S)N(c5ccc(C#N)c(C(F)(F)F)c5F)C(=O)C4(C)C)cc3F)cc2F)C(C)(C)C)cc1` [Compound A91] are 3160 ± 2820 ng·h/mL and 108 nM.
Taken in the same sequence, the figures for `CC1(C)C(=O)N(c2ccc(C#N)c(C(F)(F)F)c2F)C(=S)N1c1ccc(-c2ccc(OC3CCN(C(=O)COc4cccc5c4C(=O)N(C4CCC(=O)NC4=O)C5=O)CC3)cc2)nc1` (stereo not shown) [Compound A37] were 98 ± 48 ng·h/mL and 18.6 nM.
For the compound `Cc1ncsc1-c1ccc([C@H](C)NC(=O)[C@@H]2C[C@@H](O)CN2C(=O)[C@@H](NC(=O)COCCCCCOc2ccc(-c3ncc(N4C(=S)N(c5ccc(C#N)c(C(F)(F)F)c5F)C(=O)C4(C)C)cc3F)cc2F)C(C)(C)C)cc1` [Compound A112], the “eAUC0.5-2 h” value in data set [1] worked out at 383 ± 165 ng·h/mL. Further, the DC50 on AR was 153 nM.
Taken in the same sequence, the figures for `CNC(=O)[C@@H]1C[C@@H](O)CN1C(=O)[C@@H](NC(=O)COCCCCOc1ccc(-c2ncc(N3C(=S)N(c4ccc(C#N)c(C(F)(F)F)c4F)C(=O)C3(C)C)cc2F)cc1F)C(C)(C)C` [Compound A137] were 92 ± 34 ng·h/mL and 145 nM.
For `Cc1ncsc1-c1ccc(CNC(=O)[C@@H]2C[C@@H](O)CN2C(=O)[C@@H](NC(=O)COCCCCOc2ccc(-c3ncc(N4C(=S)N(c5ccc(C#N)c(C(F)(F)F)c5F)C(=O)C4(C)C)cc3C(F)(F)F)c(F)c2)C(C)(C)C)cc1` [Compound A95], the “eAUC0.5-2 h” value in data set [1] came out at 1234 ± 430 ng·h/mL. For the same compound, the DC50 on AR is 106 nM.
In the same order, the values of `Cc1ncsc1-c1ccc(CNC(=O)[C@@H]2C[C@@H](O)CN2C(=O)[C@@H](NC(=O)COCCCOc2ccc(-c3ccc(N4C(=S)N(c5ccc(C#N)c(C(F)(F)F)c5F)C(=O)C4(C)C)cn3)cc2F)C(C)(C)C)cc1` [Compound A72] are 240 ± 68 ng·h/mL and 35.1 nM.
Taken in the same sequence, the figures for `Cc1ncsc1-c1ccc([C@H](C)NC(=O)[C@@H]2C[C@@H](O)CN2C(=O)[C@@H](NC(=O)COCCCCOc2c(F)cc(-c3ncc(N4C(=S)N(c5ccc(C#N)c(C(F)(F)F)c5F)C(=O)C4(C)C)cc3C(F)(F)F)cc2F)C(C)(C)C)cc1` [Compound A115] were 1136 ± 164 ng·h/mL and 214 nM.
For `Cc1ncsc1-c1ccc(CNC(=O)[C@@H]2C[C@@H](O)CN2C(=O)[C@@H](NC(=O)COCCCCOc2ccc(-c3ncc(N4C(=S)N(c5ccc(C#N)c(C(F)(F)F)c5F)C(=O)C4(C)C)cc3F)cc2C#N)C(C)(C)C)cc1` [Compound A78], in data set [1], the “eAUC0.5-2 h” value was determined as 187 ± 66 ng·h/mL. The same compound returned a DC50 on AR of 57.4 nM.
In the same order, the values of `Cc1ncsc1-c1ccc(CNC(=O)[C@@H]2C[C@@H](O)CN2C(=O)[C@@H](NC(=O)COCCOc2ccc(-c3ccc(N4C(=S)N(c5ccc(C#N)c(C(F)(F)F)c5F)C(=O)C4(C)C)cn3)cc2)C(C)(C)C)cc1` [Compound A71] are 287 ± 135 ng·h/mL and 62.1 nM.
In the case of `Cc1ncsc1-c1ccc(CNC(=O)[C@@H]2C[C@@H](O)CN2C(=O)[C@@H](NC(=O)COCCCCOc2ccc(-c3ncc(N4C(=S)N(c5ccc(C#N)c(C(F)(F)F)c5F)C(=O)C4(C)C)cc3F)c(F)c2)C(C)(C)C)cc1` [Compound A94], the “eAUC0.5-2 h” value in data set [1] amounted to 410 ± 38 ng·h/mL. Besides, the DC50 on AR is 58.4 nM.
Taken in the same sequence, the figures for `Cc1ncsc1-c1ccc(CNC(=O)[C@@H]2C[C@@H](O)CN2C(=O)[C@@H](NC(=O)COCCCCOc2c(F)cc(-c3ccc(N4C(=S)N(c5ccc(C#N)c(C(F)(F)F)c5F)C(=O)C4(C)C)cn3)cc2F)C(C)(C)C)cc1` [Compound A103] were 984 ± 617 ng·h/mL and 152 nM.
In the same order, the values of `Cc1ncsc1-c1ccc([C@H](CC(=O)NCCN2CCC(C#Cc3ccc(N4C(=S)N(c5ccc(C#N)c(C(F)(F)F)c5F)C(=O)C4(C)C)cc3)CC2)NC(=O)[C@@H]2C[C@@H](O)CN2C(=O)[C@@H](NC(=O)C2(F)CC2)C(C)(C)C)cc1` [Compound A139] are 53 ± 30 ng·h/mL and 225 nM.
`Cc1ncsc1-c1ccc(CNC(=O)[C@@H]2C[C@@H](O)CN2C(=O)[C@@H](NC(=O)CCCn2cc(COc3ccc(-c4ncc(N5C(=S)N(c6ccc(C#N)c(C(F)(F)F)c6F)C(=O)C5(C)C)cc4F)cc3F)nn2)C(C)(C)C)cc1` [Compound A96] yielded a DC50 on AR of 54.9 nM.
Turning to `COc1c(C#N)ccc(N2C(=O)C(C)(C)N(c3cnc(-c4ccc(OCCNC(=O)COc5ccc6c(c5)C(=O)N(C5CCC(=O)NC5=O)C6=O)c(F)c4)c(F)c3)C2=S)c1F` (stereo not shown) [Compound A197], the DC50 at AR was 435 nM.
The same measure, in the same setting: as for `CC1(C)C(=O)N(c2ccc(C#N)c(C(F)(F)F)c2F)C(=S)N1c1cnc(-c2ccc(OCCNC(=O)COc3cccc4c3C(=O)N(C3CCC(=O)NC3=O)C4=O)c(F)c2)c(F)c1` (stereo not shown) [Compound A39], the figure is 19.4 nM; as for `Cc1ncsc1-c1ccc(CNC(=O)[C@@H]2C[C@@H](O)CN2C(=O)[C@@H](NC(=O)COCCC(F)(F)COc2ccc(-c3ncc(N4C(=S)N(c5ccc(C#N)c(C(F)(F)F)c5F)C(=O)C4(C)C)cc3F)c(C(F)(F)F)c2)C(C)(C)C)cc1` [Compound A167], 204 nM; as for `Cc1ncsc1-c1ccc(CNC(=O)[C@@H]2C[C@@H](O)CN2C(=O)[C@@H](NC(=O)[C@H]2CC[C@H](CNC(=O)c3ccc(-c4ccc(N5C(=S)N(c6ccc(C#N)c(C(F)(F)F)c6F)C(=O)C5(C)C)cn4)cc3)CC2)C(C)(C)C)cc1` [Compound A59], 48.6 nM.
On AR, `Cc1ncsc1-c1ccc(CNC(=O)[C@@H]2C[C@@H](O)CN2C(=O)[C@@H](NC(=O)COCCCC(=O)N(Cc2ccccc2)c2ccc(-c3ccc(N4C(=S)N(c5ccc(C#N)c(C(F)(F)F)c5F)C(=O)C4(C)C)cn3)cc2)C(C)(C)C)cc1` [Compound A67] registered a DC50 of 248 nM.
